We go through 18 compounds from patent US10821115B2, “Compounds that inhibit Mcl-1 protein” (priority 2017, dated 2020).

pIC50: −log10 of the molar value. Where two headings read alike, the source gives them in different places.

As usually defined, the pIC50 is the negative decadic logarithm of the IC50, by convention in mol/L.

In test [1] the test system is human multiple myeloma cell line, OPM-2. The test is described as follows: Cell viability assay (OPM-2 10 FBS), CellTiter-Glo. The test is classed as cell-based. The method, boiled down: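 Steps: plate cells at 3000/well in 10% FBS growth medium, add serially diluted compound, incubate 16 h at 37 °C with 5% CO2, add detection reagent and read luminescence after 25 min. A 4-parameter logistic model gives IC50.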
(In general: In ATP-based viability assays light output follows the ATP content of the culture.)

Test [2] addresses recombinant human Mcl-1 (residues 171-327) / Bim interaction (Homo sapiens (Human), UniProt Q07820). The test is described as follows: biochemical. The test is classed as binding. Conditions: read-out: Mcl-1 HTRF IC50. (Time-resolved FRET reads energy transfer from a long-lived donor to a nearby acceptor.)
Setting [3] is: Homo sapiens, OPM-2, 16 h, read-out: OPM-2 10% FBS IC50 IP, OPM-2 cells, 10% FBS, 16 h, CellTiter-Glo.
Setting [4] is: TR-FRET, Mcl-1(171-327) / biotin-Bim (51-76).
Setting [5] is: Homo sapiens, OPM-2, 16 h, read-out: OPM-2 10% FBS IC50 IP, OPM-2 cells, 10% FBS, 16 h incubation.
[6] abbreviates: 0.1 nM Mcl-1(171-327), 0.05 nM biotin-Bim (51-76).
Where [7] appears, read: read-out: OPM-2 10% FBS IC50 IP, OPM-2 cells, 10% FBS, 16 h, CellTiter-Glo.

recombinant human Mcl-1 (residues 171-327) / Bim interaction, sequence (Q07820 171-327): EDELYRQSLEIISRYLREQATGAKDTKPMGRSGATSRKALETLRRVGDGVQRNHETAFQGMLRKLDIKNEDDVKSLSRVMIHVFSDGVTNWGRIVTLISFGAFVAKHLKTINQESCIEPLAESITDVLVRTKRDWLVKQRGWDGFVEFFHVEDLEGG

As to `C[C@@H]1[C@@H](C)CCC[C@@](O)(CO)[C@@H]2CC[C@H]2CN2C[C@@]3(CCCc4cc(Cl)ccc43)COc3ccc(cc32)C(=O)NS1(=O)=O` [Example 100053, (1S,3′R,6′R,7′S,11′S,12′R)-6-chloro-7′-hydroxy-7′-(hydroxymethyl)-11′,12′-dimethyl-3,4-dihydro-2H,15′H-spiro[naphthalene-1,22′-[20]oxa[13]thia[1,14]diazatetracyclo [14.7.2.0~3,6~.0~19,24~]pentacosa[16,18,24]trien]-15′-one 13′,13′-dioxide], the results for the pIC50 in test [1] (setting [3]) and in test [2] (setting [4]) were 6.22 and 9.53, respectively.

Turning to `C[C@@H]1[C@@H](C)C/C=C/[C@@](O)(CC(=O)N2CCN3CCOC[C@H]3C2)[C@@H]2CC[C@H]2CN2C[C@@]3(CCCc4cc(Cl)ccc43)COc3ccc(cc32)C(=O)NS1(=O)=O` [Example 100311, (1S,3′R,6′R,7′S,8′E,11′S,12′R)-6-chloro-7′-(2-((9aR)-hexahydropyrazino[2,1-c][1,4]oxazin-8(1H)-yl)-2-oxoethyl)-7′-hydroxy-11′,12′-dimethyl-3,4-dihydro-2H,15′H-spiro[naphthalene-1,22′-[20]oxa[13]thia[1,14]diazatetracyclo [14.7.2.0~3,6~.0~19,24~]pentacosa[8,16,18,24]tetraen]-15′-one 13′,13′-dioxide], the figures for the pIC50 in test [1] (setting [3]) and in test [2] (setting [4]) were 5.92 and 8.99, respectively.

On to `COCCN(CCOC)C1CN(C[C@]2(OC)/C=C/C[C@H](C)[C@@H](C)S(=O)(=O)NC(=O)c3ccc4c(c3)N(C[C@@H]3CC[C@H]32)C[C@@]2(CCCc3cc(Cl)ccc32)CO4)C1` [Example 344, (1S,3′R,6′R,7′S,8′E,11′S,12′R)-7′-((3-(bis(2-methoxyethyl)amino)-1-azetidinyl)methyl)-6-chloro-7′-methoxy-11′,12′-dimethyl-3,4-dihydro-2H,15′H-spiro[naphthalene-1,22′-[20]oxa[13]thia[1,14]diazatetracyclo [14.7.2.0~3,6~.0~19,24~]pentacosa[8,16,18,24]tetraen]-15′-one 13′,13′-dioxide], for which the negative logarithm of the IC50 (pIC50) in test [1] (setting [5]) is 7.24; in test [2] (setting [6]), 9.94.

With `CC(C)CO[C@]1(CN2CCN3CCCC[C@@H]3C2)/C=C/C[C@H](C)[C@@H](C)S(=O)(=O)NC(=O)c2ccc3c(c2)N(C[C@@H]2CC[C@H]21)C[C@@]1(CCCc2cc(Cl)ccc21)CO3` [Example 354, (1S,3′R,6′R,7′R,8′E,11′S,12′R)-6-chloro-11′,12′-dimethyl-7′-(2-methylpropoxy)-7′-((9aR)-octahydro-2H-pyrido[1,2-a]pyrazin-2-ylmethyl)-3,4-dihydro-2H,15′H-spiro[naphthalene-1,22′-[20]oxa[13]thia[1,14]diazatetracyclo [14.7.2.0~3,6~.0~19,24~]pentacosa[8,16,18,24]tetraen]-15′-one 13′,13′-dioxide], the pIC50 in test [1] (setting [5]) was 6.35; in test [2] (setting [6]) it was 9.67.

In the case of `C[C@@H]1[C@@H](C)CCC[C@](O)(c2nccn2C)[C@@H]2CC[C@H]2CN2C[C@@]3(CCCc4cc(Cl)ccc43)COc3ccc(cc32)C(=O)NS1(=O)=O` [Example 100223, (1S,3′R,6′R,7′R,11′S,12′R)-6-chloro-7′-hydroxy-11′,12′-dimethyl-7′-(1-methyl-1H-imidazol-2-yl)-3,4-dihydro-2H,15′H-spiro[naphthalene-1,22′-[20]oxa[13]thia[1,14]diazatetracyclo [14.7.2.0~3,6~.0~19,24~]pentacosa[16,18,24]trien]-15′-one 13′,13′-dioxide], the pIC50 is 5.67 in test [1] (setting [3]) and 8.85 in test [2] (setting [4]).

Take `C[C@@H]1[C@@H](C)CCC[C@]2(OCCS2)[C@@H]2CC[C@H]2CN2C[C@@]3(CCCc4cc(Cl)ccc43)COc3ccc(cc32)C(=O)NS1(=O)=O` (single isomer, unassigned) [Example 100116]: the figures for the negative logarithm of the IC50 (pIC50) in test [1] (setting [3]) and in test [2] (setting [4]) were 5.23 and 8.42, respectively.

On to `CO[C@@]1(CN2CCN3CCN(S(C)(=O)=O)C[C@@H]3C2)/C=C/C[C@H](C)[C@@H](C)S(=O)(=O)NC(=O)c2ccc3c(c2)N(C[C@@H]2CC[C@H]21)C[C@@]1(CCCc2cc(Cl)ccc21)CO3` (single isomer, unassigned) [Example 245], for which the pIC50 is 7.24 in test [1] (read-out: OPM-2 10% FBS IC50 IP, OPM-2 cells, 10% FBS, 16 h incubation) and 9.92 in test [2] (setting [6]).

With `C[C@@H]1[C@@H](C)C/C=C/[C@](O)(C(C)(C)C#N)[C@@H]2CC[C@H]2CN2C[C@@]3(CCCc4cc(Cl)ccc43)COc3ccc(cc32)C(=O)NS1(=O)=O` [Example 100060, 2-((1S,3′R,6′R,7′R,8′E,11′S,12′R)-6-chloro-7′-hydroxy-11′,12′-dimethyl-13′,13′-dioxido-15′-oxo-3,4-dihydro-2H-spiro[naphthalene-1,22′-[20]oxa[13]thia[1,14]diazatetracyclo [14.7.2.0~3,6~.0~19,24~]pentacosa[8,16,18,24]tetraen]-7′-yl)-2-methylpropanenitrile], the pIC50 in test [1] (setting [7]) is 5.22; in test [2] (setting [4]), 8.40.

As to `COCC1(N(C)C(=O)C[C@]2(OC)/C=C/C[C@H](C)[C@@H](C)S(=O)(=O)NC(=O)c3ccc4c(c3)N(C[C@@H]3CC[C@H]32)C[C@@]2(CCCc3cc(Cl)ccc32)CO4)CC1` [Example 100396, 2-((1S,3′R,6′R,7′S,8′E,11′S,12′R)-6-chloro-7′-methoxy-11′,12′-dimethyl-13′,13′-dioxido-15′-oxo-3,4-dihydro-2H-spiro[naphthalene-1,22′-[20]oxa[13]thia[1,14]diazatetracyclo [14.7.2.0~3,6~.0~19,24~]pentacosa[8,16,18,24]tetraen]-7′-yl)-N-(1-(methoxymethyl)cyclopropyl)-N-methylacetamide], the pIC50 in test [1] (setting [3]) is 5.83; in test [2] (setting [4]), 9.57.

As to `CO[C@@]1(c2cnc(Cl)n2C)/C=C/C[C@H](C)[C@@H](C)S(=O)(=O)NC(=O)c2ccc3c(c2)N(C[C@@H]2CC[C@H]21)C[C@@]1(CCCc2cc(Cl)ccc21)CO3` (single isomer, unassigned) [Example 100558], the pIC50 in test [1] (setting [3]) was 6.56; in test [2] (setting [4]), 10.07.

Take `CCCO[C@]1(C=O)/C=C/C[C@H](C)[C@@H](C)S(=O)(=O)NC(=O)c2ccc3c(c2)N(C[C@@H]2CC[C@H]21)C[C@@]1(CCCc2cc(Cl)ccc21)CO3` [Example 100602, (1S,3′R,6′R,7′R,8′E,11′S,12′R)-6-chloro-11′,12′-dimethyl-15′-oxo-7′-propoxy-3,4-dihydro-2H-spiro[naphthalene-1,22′-[20]oxa[13]thia[1,14]diazatetracyclo [14.7.2.0~3,6~.0~19,24~]pentacosa[8,16,18,24]tetraene]-7′-carbaldehyde 13′,13′-dioxide]: the pIC50 in test [1] (setting [3]) is 5.63; in test [2] (setting [4]), 9.10.

Regarding `C[C@@H]1[C@@H](C)C/C=C/[C@]2(CCCO2)[C@@H]2CC[C@H]2CN2C[C@@]3(CCCc4cc(Cl)ccc43)COc3ccc(cc32)C(=O)NS1(=O)=O` (stereo in doubt) [Example 100132], the pIC50 in test [1] (setting [3]) is 6.17; in test [2] (setting [4]), 9.27.

Consider `C[C@@H]1[C@@H](C)C/C=C/[C@](O)(c2ncccn2)[C@@H]2CC[C@H]2CN2C[C@@]3(CCCc4cc(Cl)ccc43)COc3ccc(cc32)C(=O)NS1(=O)=O` (single isomer, unassigned) [Example 100274], for which the pIC50 was 6.27 in test [1] (setting [3]) and 9.42 in test [2] (setting [4]).

Turning to `COC(=O)CN1CCN(C[C@]2(OC)/C=C/C[C@H](C)[C@@H](C)S(=O)(=O)NC(=O)c3ccc4c(c3)N(C[C@@H]3CC[C@H]32)C[C@@]2(CCCc3cc(Cl)ccc32)CO4)CC1` [Example 269, methyl (4-(((1S,3′R,6′R,7′S,8′E,11′S,12′R)-6-chloro-7′-methoxy-11′,12′-dimethyl-13′,13′-dioxido-15′-oxo-3,4-dihydro-2H-spiro[naphthalene-1,22′-[20]oxa[13]thia[1,14]diazatetracyclo[14.7.2.0-3,6˜.0˜19,24˜]pentacosa[8,16,18,24]tetraen]-7′-yl)methyl)-1-piperazinyl)acetate], the negative-log IC50 (pIC50) in test [1] (setting [5]) was 7.07; in test [2] (setting [6]), 9.98.

With `C[C@@H]1[C@@H](C)CCC[C@]2(CC(N3CCCC3)=NO2)[C@@H]2CC[C@H]2CN2C[C@@]3(CCCc4cc(Cl)ccc43)COc3ccc(cc32)C(=O)NS1(=O)=O` [Example 100147, (1S,3′R,6′R,7′S,11′S,12′R)-6-chloro-11′,12′-dimethyl-3″-(1-pyrrolidinyl)-3,4-dihydro-2H,4″H,15′H-dispiro[naphthalene-1,22′-[20]oxa[13]thia[1,14]diazatetracyclo [14.7.2.0~3,6~.0~19,24~]pentacosa[16,18,24]triene-7′,5″-[1,2]oxazol]-15′-one 13′,13′-dioxide], the figures for the negative-log IC50 (pIC50) in test [1] (setting [3]) and in test [2] (setting [4]) were 6.18 and 9.52, respectively.

Regarding `CO[C@@]1(CC2=N[C@H](C)C(=O)O2)/C=C/C[C@H](C)[C@@H](C)S(=O)(=O)NC(=O)c2ccc3c(c2)N(C[C@@H]2CC[C@H]21)C[C@@]1(CCCc2cc(Cl)ccc21)CO3` (stereo in doubt) [Example 100531], the pIC50 in test [1] (setting [3]) is 6.76; in test [2] (setting [4]), 10.08.

For `C[C@@H]1[C@@H](C)C/C=C/[C@](O)(CN(C)CCO)[C@@H]2CC[C@H]2CN2C[C@@]3(CCCc4cc(Cl)ccc43)COc3ccc(cc32)C(=O)NS1(=O)=O` [Example 129], the figures for the negative-log IC50 (pIC50) in test [1] (setting [5]) and in test [2] (setting [6]) were 5.58 and 8.77, respectively.

`C[C@H](C(=O)O)[C@@]1(O)/C=C/C[C@H](C)[C@@H](C)S(=O)(=O)NC(=O)c2ccc3c(c2)N(C[C@@H]2CC[C@H]21)C[C@@]1(CCCc2cc(Cl)ccc21)CO3` (single isomer, unassigned) [Example 100123]: the values for the pIC50 in test [1] (setting [7]) and in test [2] (setting [4]) were 5.58 and 10.04, respectively.
